# Experimental data from patent publication US8604161B2 (priority 2002, dated 2013).
# Experiments:
# PrPres = PrPres (Mesocricetus auratus, UniProt P04273); details: for PrPres bound to resin in five 10 ml columns in series / removal of PrPres: 300 ml RBCC spiked with 0.1% scrapie hamster brain homogenate, Western blot of bead eluates; for Resin needed to remove all PrPres to the limit of detection of the Western blot: 300 ml spiked RBCC, 3 columns of 10 ml
# PrPc = PrPc (Mesocricetus auratus, UniProt P04273); details: 1% normal hamster brain homogenate, 0.5 ml column
# haPrPc and haPrPsc = haPrPc and haPrPsc (Mesocricetus auratus, UniProt P04273); details: 3-mer library, hamster brain homogenates
# haPrPc and haPrPsc, sequence (P04273 23-231 limits assumed): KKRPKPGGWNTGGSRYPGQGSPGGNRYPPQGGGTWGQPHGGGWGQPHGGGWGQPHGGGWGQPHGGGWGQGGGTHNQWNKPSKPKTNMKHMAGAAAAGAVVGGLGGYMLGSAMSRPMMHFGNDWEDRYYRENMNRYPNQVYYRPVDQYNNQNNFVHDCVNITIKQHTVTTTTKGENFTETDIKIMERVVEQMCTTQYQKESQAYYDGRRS
# PrPres, sequence (P04273 23-231 limits assumed): as above
# PrPc, sequence (P04273 23-231 limits assumed): as above
Substance,PrPres bound to resin in five 10 ml columns in series / removal of PrPres (PrPres),Location of bound PrPc on chopped resin beads (PrPc),Resin needed to remove all PrPres to the limit of detection of the Western blot (PrPres) [mL],Preferential binding of PrPsc over PrPc (haPrPc and haPrPsc)
(D)ES(na)PRQ-EACA [SEQ ID NO:226],decreasing amounts of PrPres on columns 1 through 3,,,
WFVEA [SEQ ID NO:225],does not bind and remove all of the prion protein to the limit of detection,,,
DVR [SEQ ID NO:114],remove all of the PrPres to the limit of detection of the Western blot in 3 columns,protein bound to the exterior of the beads,30,bind preferentially PrPsc over PrPc
VQR [SEQ ID NO:111],,,,bind preferentially PrPsc over PrPc
YVHEA [SEQ ID NO:63],decreasing amounts of PrPres on columns 1 through 3,,,
SYA [SEQ ID NO:108],remove all of the PrPres to the limit of detection of the Western blot in 3 columns,,30,
